Patent EP1300161A1, “Cationic lipids suitable for gene transfer” (rubitec Gesellschaft für Innovation und Technologie der …, priority 2001, dated 2003)
Entries after “also recorded” stand apart in the source; their conditions may differ.

Columns and labels:
[1] = tested on: COS-7 cell-line; assay: Lipofection (luciferase reporter) transfection efficiency in COS-7 cells; format: cell-based, African green monkey
From the text: Screening / Lipofection studies: For a broad and reproducible testing the transfection properties of systematically varied new cationic lipids, we recently have developed an fully automated high throughput system ([…]. et al., J. Biomol. Screening (2001)). This system, which comprises the entire lipofection process from liposome formation to reporter gene assay, allows to identify candidate cationic lipids and to develop suitable lipofection reagents and protocols based on those lipids. Automation of this process was necessary, because manually testing of various cationic lipids or lipid mixtures is extremely labor intensive and high reproducibility can not be guarantied. Goal of this first step was to find the cationic lipid with the best hydrocarbon chain composition for the development of suitable lipofection reagents and protocols. All lipids with different hydrocarbon chains (lipids 1-16, table 1) which are R-configurated and have chloride as counter ion were tested using a standard protocol: From each lipid, eight different lipoplexes containing equimolar amounts of the helper lipid DOPE were formed using different DNA:lipid-charge ratios from 1:1 - 1:15, resulting in a lipofection profile for each lipid (fig. 1). The COS-7 cell-line was used for this first lipofection study because COS-7 is easy to transfect and differences between the lipids are easy to identify. For comparison, the transfection efficiency of the well know cationic lipid DOTAP at its best lipid/DNA charge ration of 2.5 was also determined in each run. Cell culture: The initial transfection screening was carried out using COS-7 cells. The cells were maintained in 96-well culture plates (Greiner, Frickenhausen, Germany) in 200 μl EMEM/10 % FCS/1 % Penicillin-streptomycin in a humidified atmosphere at 37 °C/5 % CO2. […] For the subsequent quantification of transfection efficiency (part 2) a reporter plasmid carrying the firefly luciferase gene under the control of the CMV promoter is used to form lipoplexes. […]

[2] = tested on: primary dendritic cells; assay: Lipofection transfection efficiency in primary dendritic cells; format: cell-based, human
[3] = tested on: mamma carcinoma cell line MCF-7; assay: Lipofection transfection efficiency in MCF-7 cells; format: cell-based
[4] = tested on: mamma carcinoma cell line MDA-MB-468; assay: Lipofection transfection efficiency in MDA-MB-468 cells; format: cell-based
[5] = tested on: COS-7 cell-line; assay: Lipofection (luciferase reporter) transfection efficiency in COS-7 cells; format: cell-based, African green monkey; remark: listed apart in the source
[6] = tested on: COS-7 cell-line; assay: Cytotoxicity of lipoplexes (protein content of transfected versus non-transfected cells); format: cell-based, African green monkey; conditions: Chol as helper lipid, ratio 0.7, chloride
Method: (§1) Goal of this first step was to find the cationic lipid with the best hydrocarbon chain composition for the development of suitable lipofection reagents and protocols. All lipids with different hydrocarbon chains (lipids 1-16, table 1) which are R-configurated and have chloride as counter ion were tested using a standard protocol: From each lipid, […] DNA:lipid-charge ratios from 1:1 - 1:15, resulting in a lipofection profile for each lipid (fig. 1). The COS-7 cell-line was used for this first lipofection study because COS-7 is easy to transfect and differences between the lipids are easy to identify. For comparison, the transfection efficiency of the well know cationic lipid DOTAP at its best lipid/DNA charge ration of 2.5 was also determined in each run. Part 2 (Transfection assays): After lipoplex formation, the robot took the cell culture microtiter plates from an incubator and removed the lid from the plates. Immediately prior to transfection, 100 µl of the culture medium were removed and the lipoplexes were dispensed into the wells (triplicates). The lids were replaced and the MTP were returned to the incubator. […] Assay specific standards and controls were added to the microplates, and luciferase activity and protein content of the lysates were measured. Transfection efficiencies were calculated by dividing luciferase activity by protein content.

[7] = as above; format: cell-based, African green monkey; conditions: monkey, cos-7 cells; equimolar DOPE, COS-7; read-out: vitality of the cells at maximum transfection efficiency
Method: as §1

[8] = tested on: polarized cell line MDCK-C7
[9] = racemic, chloride, 70 mol-% cholesterol
[10] = racemic, chloride, 70 mol-% cholesterol, MDA-MB-468

With `CCCCCCCCCCCCCCN(CCCCCCCCCCCCCC)CC(O)CO` (stereo not shown) [KL-14-analog which was not methylated] as the compound, how does the transfection ([1]; not methylated analog) read?
The transfection was “did not transfect at all”.

What does the source list for `CCCCCCCCCCCCCC[N+](C)(CCCCCCCCCCCCCC)CC(O)CO` (stereo not shown) [KL-14]?
factor by which transfection efficiency is reduced in comparison with COS-7-cells ([2]; racemic, chloride, 70 mol-% cholesterol, dendritic cell): about 600; transfection efficiency, fold increase over DOTAP ([2]; racemic, chloride, 70 mol-% cholesterol, dendritic cells): 1.5-2; transfection efficiency, DOPE-formulation compared with cholesterol mixture ([3]; equimolar mixture with DOPE): lower; factor by which transfection efficiency is reduced in comparison with COS-7-cells [3, 9]: about 12; transfection efficiency, times higher than for DOTAP [3, 9]: 8; transfection efficiency, DOPE-formulation compared with cholesterol mixture ([4]; equimolar mixture with DOPE, MDA-MB-468): lower; factor by which transfection efficiency is reduced in comparison with COS-7-cells [4, 10]: about 12; transfection efficiency, times higher than for DOTAP [4, 10]: 8; transfection efficiency, R- versus S-configuration ([5]; Chol as helper lipid, ratio 0.7, chloride): statistically similar; Chol/KL-14 ratio giving highest transfection efficiency ([5]; Cholesterol as helper lipid): 0.5-0.7; transfection efficiency ([5]; Cholesterol as helper lipid, Chol/KL-14 ratios 0.3 - 1.2, compared with DOPE mixtures): always higher than for the mixtures of KL-14 with DOPE; transfection efficiency ([5]; DOPE as helper lipid, DOPE/KL-14 ratio 0.3 to 1.2): very high; transfection efficiency as % of the chloride values ([5]; racemic, counter ion acetate, cholesterol/KL-14 ratio 0.7): 57%; transfection efficiency (comparison of counter ions) ([5]; racemic, counter ion chloride, cholesterol/KL-14 ratio 0.7): highest transfection efficiency; transfection efficiency as % of the values found for chloride ([5]; racemic, counter ion methylsulfate, cholesterol/KL-14 ratio 0.7): 70-75%; transfection efficiency as % of the values found for chloride ([5]; racemic, counter ion sulfate, cholesterol/KL-14 ratio 0.7): 70-75%; transfection efficiency as % of that of the standard lipid DOTAP ([5]; without helper lipids): 70%; toxicity, R- versus S-configuration [6]: statistically similar; viability [7]: ~70%; transfection efficiency (comparison within the library) ([1]; R-configurated, chloride, equimolar DOPE, COS-7): most effective; also recorded: highest transfection efficiency; factor by which transfection efficiency is reduced in comparison with COS-7-cells [8]: about 100; transfection efficiency, fold increase over DOTAP [8]: 1.5-2

Which transfection efficiency ([2]; DC 5day, lower line) does the source give for `CCCCCCCC/C=C\CCCCCCCC(=O)OCC(C[N+](C)(C)C)OC(=O)CCCCCCC/C=C\CCCCCCCC` (stereo not shown) [DOTAP, N-(1(2,-dioleyoyl)propyl)-N,N,N-trimethylammonium chloride, reference compound] here?
The transfection efficiency was 3,18 +/- 5,87 (3) rlu/µg protein/ml.

What about the transfection efficiency ([3]; lower line) of the same compound?
The transfection efficiency was 101,65 +/- 93,42 (7) rlu/µg protein/ml.

What about the transfection efficiency ([4]; MDA-MB468, lower line) of the same compound?
The transfection efficiency was 92,58 +/- 82,86 (9) rlu/µg protein/ml.

What about the transfection efficiency ([1]; COS-7, lower line) of the same compound?
Its transfection efficiency is 466,72 +/- 320,44 (11) rlu/µg protein/ml.

What about the transfection efficiency [8] of the same compound?
Its transfection efficiency is 26,64 +/- 3,33 (2) rlu/µg protein/ml.
